The conditions of data set [1]: in vivo, cited from earlier work.
In data set [2] the test system is CT26 colon carcinoma cells. Nature of the data set: CT26 tumor model, BNT411 alone and with oxaliplatin (Example 4). It is filed as in vivo, mouse. Conditions: BNT411 3 mg/kg i.v. eight times; oxaliplatin 5 mg/kg i.p. four times; group mean tumor volumes test vs control. The method, then: FIG. 5. Anti-tumoral efficacy of BNT411 alone and in combination with oxaliplatin in a tumor mouse model. Mice (n=12 or 13 per group) subcutaneously inoculated with 2.5×10^5 CT26 colon carcinoma cells were used as tumor mouse model. Oxaliplatin was administered intraperitoneally (i.p.) (5 mg/kg, four times with 4 to 5 days between injections). BNT411 was administered i.v. at a dose level of 3 mg/kg eight times with 2 to 5 days interval between injections and at least 2 days after oxaliplatin therapy. Anti-tumor efficacy was evaluated by group mean tumor volumes in test versus control groups (vehicle only) on days 33 and 42 (at least 50% of test and control animals alive). IFNα levels in plasma were analyzed 1 h after first BNT411 administration and gp70+ T-cell populations in blood were analyzed on days 34 and 41. (A) Dosing schedule. (B) Graph showing the tumor volumes vs. days after inoculation. Group mean tumor volumes (±SEM (standard error of the mean)) for all live animals are shown. Treatment groups included nine to ten mice. Additionally, tumor volumes of animals that were euthanized due to tumor load were carried forward for as long as they were larger than the group median tumor volume (last observation carried forward (LOCF) values). Curves were discontinued for groups with less than 50% animals alive. (C) Graph showing IFNα serum level 60 min after first injection for the 4 groups (control (vehicle); BNT411 alone; oxaliplatin alone; BNT411 and oxaliplatin). IFNα levels in control and test groups are shown by vertical bars (±SEM), Statistical significance between groups is indicated by horizontal lines. P-value summary: ****=p≤0.0001; ***=p≤0.001; **=p≤0.01, […].
Serum levels of IFNα were measured by sandwich ELISA (Pbl Assay Systems) according to manufacturer's instructions.
BALB/c mice were inoculated s.c. with 2.5×10^5−5×10^5 CT26-WT into the flank, respectively. Once tumors reached palpable sizes, mice were randomly divided into treatment and control groups. Tumor volume was measured unblinded with a caliper and calculated using the formula (a×b^2)/2 (a being the largest and b being the smallest diameter of the tumor). Tumor growth was documented as mean tumor size with standard error disregarding single distant outliers. Treatment was initiated after 7-10 d with tumors having reached an average volume of about 10 mm^3. […]
Oxaliplatin was administered intraperitoneally (i.p.) (5 mg/kg, four times with 4 to 5 days between injections). […] Anti-tumor efficacy was evaluated by group mean tumor volumes in test versus control groups (vehicle only) on study days 33 and 42, (at least 50% of test and control animals alive). IFNα levels in plasma were analyzed 1 h after first BNT411 administration and gp70+ T-cell populations in blood on study days 34 and 41.

The structures appear in SMILES notation.

Turning to `CCc1nc2c(N)nc3ccccc3c2n1CCCCNS(C)(=O)=O` [852A], in data set [1], the “tolerability of repeat-dose regimens” value was “not well tolerated”.
On to `CC(C)Cn1cnc2c(N)nc3ccccc3c21` [imiquimod], for which the “tolerability of repeated i.v. administrations at a systemically effective IFNa-inducing dose level” value in data set [1] (iv) is on record as “dose limiting adverse reactions”.
As to `O=C1[O][Pt]2([NH][C@@H]3CCCC[C@H]3[NH]2)[O]C1=O` [oxaliplatin, reference compound], in data set [2], the “anti-tumor efficacy, T/C value” turned out to be 50.7%.
